Legend:
beta amyloid 42 = assay: Aβ40/42 ELISA Assay: Aβ42; format: cell-based; settings: Cricetulus griseus; CHO cells carrying the APP-REP-NL plasmid, 22 hours, sandwich ELISA of medium
Method: (§1) Pharmacology: Aβ40/42 ELISA Assay
(§2) Compounds are diluted from DMSO stocks to 2 μM and below in a cell culture medium. Compounds are then applied to CHO cells carrying the APP-REP-NL plasmid [Sudhir et. al, J. Biol. Chem. 267:25602-25608 (1992)] for a period of 22 hours. After the conditioning period, medium is collected, diluted in assay buffer containing protein, and samples, controls, and synthetic peptide standards are incubated on a prepared ELISA plate. Using a sandwich ELISA with antibodies specifically directed against the carboxyl terminus of beta amyloid 40 or 42 [analogous to the method reported by Haugabook et al., J. Neurosci. Methods 108:171-179 (2001) but using goat anti-mouse IgGl (source: Southern Biotech) as the anchor, 6E10 as the capture antibody (Source: SENETEK), rabbit antiαβ40 and antiαβB42 (source: QCB) and APL-donkey anti-rabbit IgG (H+L, source: Southern Biotech) as the detection antibody], the effect of the compound treatment on the cellular production of extracellular beta amyloid is quantified. Cells treated with compound are subsequently incubated in cell culture medium containing […]. After a short incubation period, MTS/medium containing plates are read in a spectrophotometer to determine the extent to which compound toxicity affected the cell's metabolism and ability to synthesize beta amyloid.
(§3) Test Samples: compound samples are supplied as 20 mM stock solutions in a 100% DMSO solution.
(§4) APP-REP-NL cells: Qualified cell lines are carried from week to week using 1:100 dilutions and are cultured in DMEM supplemented with 1× antibiotic/antimycotic, 200 μg/ml of G418 antibiotic, and 10% certified fetal calf serum. Cells are also banked in liquid nitrogen. Periodically, beta amyloid production is assessed, and cells are either kept in culture or replaced with progenitors at full expression.
(§5) Antibodies: Are from certified lots that have already been qualified in this assay. Antibodies are stored in small frozen aliquots at −80° C. that are thawed and used.
(§6) A compound is considered active if it has an EC50 for Aβ 40 reduction of <100 μM and no toxicity at doses in the vicinity the EC50.

beta amyloid 40 = assay: Aβ40/42 ELISA Assay: Aβ40; format: cell-based; settings: Cricetulus griseus; CHO cells carrying the APP-REP-NL plasmid, 22 hours, sandwich ELISA of medium
Method: as §1, §2, §3, §4, §5, §6

| Compound | EC50 (beta amyloid 42) [µM] | EC50 (beta amyloid 40) [µM] |
| --- | --- | --- |
| Cc1cccc(S(=O)(=O)NC(CO)C(C(F)(F)F)C(F)(F)F)c1 (centres unmarked) [Example 15, 3-methyl-N-[3,3,3-trifluoro-1-(hydroxymethyl)-2-(trifluoromethyl)propyl]benzenesulfonamide] | 14.5 | 15.1 |
| C[C@@H]([C@@H](CO)NS(=O)(=O)c1ccc(Cl)cc1)C(F)(F)F [Example 43, 4-Chloro-N-[(1S,2S)-3,3,3-trifluoro-1-(hydroxymethyl)-2-methylpropyl]benzenesulfonamide] | 0.384 | 0.423 |
| O=[N+]([O-])c1ccc(S(=O)(=O)NC(CO)C(C(F)(F)F)C(F)(F)F)cc1 (centres unmarked) [Example 19, 4-nitro-N-(3,3,3-trifluoro-1-hydroxymethyl-2-trifluoromethyl-propyl)-benzenesulfonamide] | 26.8 | 27.8 |
| CSc1cc(S(=O)(=O)NC(CO)C(C(F)(F)F)C(F)(F)F)ccc1Cl (centres unmarked) [Example 23, 4-Chloro-3-methylsulfanyl-N-(3,3,3-trifluoro-1-hydroxymethyl-2-trifluoromethyl-propyl)-benzenesulfonamide] | – | 22.3 |
| CC(=O)c1cccc(S(=O)(=O)NC(CO)C(C(F)(F)F)C(F)(F)F)c1 (centres unmarked) [Example 6, 3-Acetyl-N-(3,3,3-trifluoro-1-hydroxymethyl-2-trifluoromethyl-propyl)-benzenesulfonamide] | 11.2 | 13.4 |
| O=S(=O)(NC(CO)C(C(F)(F)F)C(F)(F)F)c1ccc(C(F)(F)F)cc1 (centres unmarked) [Example 17, N-[3,3,3-trifluoro-1-(hydroxymethyl)-2-(trifluoromethyl)propyl]-4-(trifluoromethyl)benzenesulfonamide] | 1.94 | 2.29 |
| COc1cccc(S(=O)(=O)NC(CO)C(C(F)(F)F)C(F)(F)F)c1 (centres unmarked) [Example 12, 3-methoxy-N-[3,3,3-trifluoro-1-(hydroxymethyl)-2-(trifluoromethyl)propyl]benzenesulfonamide] | – | 24.1 |
| O=S(=O)(NC(CO)C(C(F)(F)F)C(F)(F)F)c1ccc(F)c(Cl)c1 (centres unmarked) [Example 39, 3-chloro-4-fluoro-N-[3,3,3-trifluoro-1-(hydroxymethyl)-2-(trifluoromethyl)propyl]benzenesulfonamide] | 8.62 | 6.72 |
| Cc1ccc(S(=O)(=O)NC(CO)C(C(F)(F)F)C(F)(F)F)cc1 (centres unmarked) [Example 14, 4-methyl-N-[3,3,3-trifluoro-1-(hydroxymethyl)-2-(trifluoromethyl)propyl]benzenesulfonamide] | 1.26 | 1.5 |
| C[C@H]([C@@H](CO)NS(=O)(=O)c1ccc(Cl)cc1)C(F)(F)F [Example 44, 4-Chloro-N-[(1S,2R)-3,3,3-trifluoro-1-(hydroxymethyl)-2-methylpropyl]benzenesulfonamide] | 3.51 | 2.94 |
| O=S(=O)(NC(CO)C(C(F)(F)F)C(F)(F)F)c1cc(Cl)cc(Cl)c1 (centres unmarked) [Example 36, 3,5-dichloro-N-(3,3,3-trifluoro-1-hydroxymethyl-2-trifluoromethyl-propyl)-benzenesulfonamide] | – | 64 |
| O=S(=O)(NC(CO)C(C(F)(F)F)C(F)(F)F)c1ccc(F)cc1F (centres unmarked) [Example 35, 2,4-difluoro-N-(3,3,3-trifluoro-1-hydroxymethyl-2-trifluoromethyl-propyl)-benzenesulfonamide] | 11.2 | 9.77 |
| C[C@@H]([C@@H](CO)NS(=O)(=O)c1ccc(C(F)(F)F)cc1)C(F)(F)F [Example 47, N-[(1S,2S)-3,3,3-Trifluoro-1-(hydroxymethyl)-2-methylpropyl]-4-(trifluoromethyl)benzenesulfonamide] | 1.17 | 1.4 |
| O=S(=O)(N[C@H](CO)C(C(F)(F)F)C(F)(F)F)c1ccc(Cl)c(Cl)c1 [Example 41, (S)-3,4-Dichloro-N-[3,3,3-trifluoro-1-(hydroxymethyl)-2-(trifluoromethyl)propyl]benzene sulfonamide] | 5.37 | 5.57 |
| O=S(=O)(NC(CO)C(C(F)(F)F)C(F)(F)F)c1ccc(Cl)c(Cl)c1 (centres unmarked) [Example 38, 3,4-dichloro-N-(3,3,3-trifluoro-1-hydroxymethyl-2-trifluoromethyl-propyl)-benzenesulfonamide] | 6.55 | 4.68 |
| O=S(=O)(NC(CO)C(C(F)(F)F)C(F)(F)F)c1cccc(Br)c1 (centres unmarked) [Example 32, 3-bromo-N-(3,3,3-trifluoro-1-hydroxymethyl-2-trifluoromethyl-propyl)-benzenesulfonamide] | 25.3 | 19.8 |

| Compound | EC50 (beta amyloid 42) [µM] | EC50 (beta amyloid 40) [µM] |
| --- | --- | --- |
| O=S(=O)(NC(CO)C(C(F)(F)F)C(F)(F)F)c1ccc(F)c(F)c1 (centres unmarked) [Example 34, 3,4-difluoro-N-(3,3,3-trifluoro-1-hydroxymethyl-2-trifluoromethyl-propyl)-benzenesulfonamide] | 2.4 | 2.22 |
| O=S(=O)(NC(CO)C(C(F)(F)F)C(F)(F)F)c1cccc(C(F)(F)F)c1 (centres unmarked) [Example 16, N-[3,3,3-trifluoro-1-(hydroxymethyl)-2-(trifluoromethyl)propyl]-3-(trifluoromethyl)benzenesulfonamide] | – | 28.1 |
| CCCc1ccc(S(=O)(=O)NC(CO)C(C(F)(F)F)C(F)(F)F)cc1 (centres unmarked) [Example 13, 4-propyl-N-[3,3,3-trifluoro-1-(hydroxymethyl)-2-(trifluoromethyl)propyl]benzenesulfonamide] | – | 18 |
| O=S(=O)(NC(CO)C(C(F)(F)F)C(F)(F)F)c1cccc(Cl)c1 (centres unmarked) [Example 29, 3-chloro-N-(3,3,3-trifluoro-1-hydroxymethyl-2-trifluoromethyl-propyl)-benzenesulfonamide] | 37.2 | 24.2 |
| O=S(=O)(NC(CO)C(C(F)(F)F)C(F)(F)F)c1ccccc1 (centres unmarked) [Example 33, N-(3,3,3-trifluoro-1-hydroxymethyl-2-trifluoromethyl-propyl)-benzenesulfonamide] | 7.02 | 6.26 |
| O=S(=O)(NC(CO)C(C(F)(F)F)C(F)(F)F)c1ccc(F)cc1 (centres unmarked) [Example 26, 4-Fluoro-N-[3,3,3-trifluoro-1-(hydroxymethyl)-2-(trifluoromethyl)propyl]benzene sulfonamide] | 1.21 | 1.13 |
| COc1cc(S(=O)(=O)NC(CO)C(C(F)(F)F)C(F)(F)F)ccc1Cl (centres unmarked) [Example 3, 4-Chloro-3-methoxy-N-(3,3,3-trifluoro-1-hydroxymethyl-2-trifluoromethyl-propyl)-benzenesulfonamide] | 13.8 | 9.94 |
| O=S(=O)(N[C@H](CO)C(C(F)(F)F)C(F)(F)F)c1ccc(Cl)cc1 [Example 1, 4-Chloro-N-[(1S)-3,3,3-trifluoro-1-(hydroxymethyl)-2-(trifluoromethyl)propyl]benzenesulfonamide] | 0.177 | 0.22 |
| O=S(=O)(NC(CO)C(C(F)(F)F)C(F)(F)F)c1cc(F)cc(F)c1 (centres unmarked) [Example 22, 3,5-Difluoro-N-(3,3,3-trifluoro-1-hydroxymethyl-2-trifluoromethyl-propyl)-benzenesulfonamide] | 6.34 | 5.72 |
| O=S(=O)(NC(CO)C(C(F)(F)F)C(F)(F)F)c1ccc(F)c(F)c1F (centres unmarked) [Example 40, 2,3,4-trifluoro-N-(3,3,3-trifluoro-1-hydroxymethyl-2-trifluoromethyl-propyl)-benzenesulfonamide] | 45.4 | 32.2 |
| O=S(=O)(NC(CO)C(C(F)(F)F)C(F)(F)F)c1cccc(OC(F)F)c1 (centres unmarked) [Example 8, 3-(difluoromethoxy)-N-[3,3,3-trifluoro-1-(hydroxymethyl)2-(trifluoromethyl)propyl]benzenesulfonamide] | – | 47.9 |
| C[C@@H]([C@@H](CO)NS(=O)(=O)c1ccc(F)cc1)C(F)(F)F [Example 48, 4-Fluoro-N-[(1S,2S)-3,3,3-trifluoro-1-(hydroxymethyl)-2-methylpropyl]benzenesulfonamide] | 0.563 | 0.651 |
| O=S(=O)(NC(CO)C(C(F)(F)F)C(F)(F)F)c1ccc(Cl)c(F)c1 (centres unmarked) [Example 24, 4-Chloro-3-fluoro-N-(3,3,3-trifluoro-1-hydroxymethyl-2-trifluoromethyl-propyl)-benzenesulfonamide] | 1.14 | 1.09 |
| N#Cc1ccc(S(=O)(=O)NC(CO)C(C(F)(F)F)C(F)(F)F)cc1 (centres unmarked) [Example 18, 4-Cyano-N-(3,3,3-trifluoro-1-hydroxymethyl-2-trifluoromethyl-propyl)-benzenesulfonamide] | 101 | 90.7 |
| O=S(=O)(NC(CO)C(C(F)(F)F)C(F)(F)F)c1cc(F)c(F)c(F)c1 (centres unmarked) [Example 42, 3,4,5-Trifluoro-N-(3,3,3-trifluoro-1-hydroxymethyl-2-trifluoromethyl-propyl)-benzene sulfonamide] | 5.5 | 6.63 |
